Source: publication PMC4165445 (Biochemistry, 2014)
Blank lines part the entries; values can stand above or below the substance they belong to.

What was measured:
JNK1 = JNK1 (Homo sapiens, UniProt P45983); test: Recombinant kinase assay, kinetic parameters of sensor phosphorylation; type: biochemical
JNK2 = JNK2 (Homo sapiens, UniProt P45984); test: as above; type: biochemical
JNK3 = JNK3 (Homo sapiens, UniProt P53779); test: as above; type: biochemical
off target kinases = test: Kinase panel selectivity screen, JNK sensor, off target kinases; type: biochemical; details: 15 nM kinase, sensor at 2 × KM (3 μM), other MAP and non-MAP kinases
ERK = details: read-out: KD (μM) ERK; docking motif peptide binding to ERK; cited from earlier work
JNK = details: read-out: KD (μM) JNK; docking motif peptide binding to JNK; cited from earlier work
p38 = details: read-out: KD (μM) p38; docking motif peptide binding to p38; cited from earlier work
p38β [1] = biological target: T1, p38β (Homo sapiens, UniProt Q15759); test: Kinase panel selectivity screen, ERK sensor crosstalk with p38β; type: biochemical; details: 15 nM kinase, sensor at 2 × KM (2.5 μM)
T1 sequence (Q15759 whole entry): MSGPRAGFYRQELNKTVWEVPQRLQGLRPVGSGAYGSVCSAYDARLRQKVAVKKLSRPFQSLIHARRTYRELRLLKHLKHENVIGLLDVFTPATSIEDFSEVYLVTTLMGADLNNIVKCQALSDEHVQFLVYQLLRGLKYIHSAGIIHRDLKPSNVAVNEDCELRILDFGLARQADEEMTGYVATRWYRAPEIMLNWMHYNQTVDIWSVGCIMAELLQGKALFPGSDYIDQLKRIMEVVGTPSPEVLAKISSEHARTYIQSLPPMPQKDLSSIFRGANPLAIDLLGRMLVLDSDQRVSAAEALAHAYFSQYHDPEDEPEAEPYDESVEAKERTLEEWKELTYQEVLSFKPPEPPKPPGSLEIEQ

p38α [2] = biological target: T2, p38α (Homo sapiens, UniProt Q16539); test: Kinase panel selectivity screen, ERK sensor crosstalk with p38α; type: biochemical; details: 15 nM kinase, sensor at 2 × KM (2.5 μM)
T2 sequence (Q16539 whole entry): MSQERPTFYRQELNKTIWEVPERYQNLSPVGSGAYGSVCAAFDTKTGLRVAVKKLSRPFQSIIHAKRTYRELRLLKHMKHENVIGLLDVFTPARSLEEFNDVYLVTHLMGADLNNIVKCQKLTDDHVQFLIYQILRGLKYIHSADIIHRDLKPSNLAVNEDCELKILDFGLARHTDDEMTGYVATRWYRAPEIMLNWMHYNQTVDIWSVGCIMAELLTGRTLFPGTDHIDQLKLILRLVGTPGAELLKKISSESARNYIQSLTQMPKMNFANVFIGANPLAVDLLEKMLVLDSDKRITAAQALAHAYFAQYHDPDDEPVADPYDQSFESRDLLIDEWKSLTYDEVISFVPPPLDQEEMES

ERK1 = ERK1 (Homo sapiens, UniProt P27361); test: Recombinant kinase assay, kinetic parameters of sensor phosphorylation; type: biochemical
Chain of ERK1 (P27361 whole entry): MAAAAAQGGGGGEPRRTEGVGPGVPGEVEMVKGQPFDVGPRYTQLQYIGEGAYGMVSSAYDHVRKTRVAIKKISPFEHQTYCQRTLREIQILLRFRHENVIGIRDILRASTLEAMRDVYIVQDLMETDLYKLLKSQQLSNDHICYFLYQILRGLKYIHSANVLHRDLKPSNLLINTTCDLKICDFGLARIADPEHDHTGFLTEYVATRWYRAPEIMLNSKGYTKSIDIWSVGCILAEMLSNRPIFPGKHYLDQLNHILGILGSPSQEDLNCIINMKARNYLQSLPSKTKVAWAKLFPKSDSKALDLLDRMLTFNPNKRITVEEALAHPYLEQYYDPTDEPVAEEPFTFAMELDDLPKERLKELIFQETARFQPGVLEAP

ERK2 = ERK2 (Homo sapiens, UniProt P28482); test: as above; type: biochemical
Chain of ERK2 (P28482 whole entry): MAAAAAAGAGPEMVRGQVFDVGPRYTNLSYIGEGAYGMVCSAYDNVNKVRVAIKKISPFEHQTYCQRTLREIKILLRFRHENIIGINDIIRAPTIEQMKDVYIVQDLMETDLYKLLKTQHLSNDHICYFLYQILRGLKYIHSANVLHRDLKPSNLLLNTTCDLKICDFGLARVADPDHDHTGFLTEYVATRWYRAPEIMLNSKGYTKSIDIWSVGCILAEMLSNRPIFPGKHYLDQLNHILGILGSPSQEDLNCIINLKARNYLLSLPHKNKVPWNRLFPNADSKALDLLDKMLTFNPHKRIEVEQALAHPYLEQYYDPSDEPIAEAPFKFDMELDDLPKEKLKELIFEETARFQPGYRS

p38α [3] = biological target: T2, p38α; test: as above; type: biochemical
p38β [4] = biological target: T1, p38β; test: as above; type: biochemical
[5] = recombinant JNK1, 1 mM ATP, pH 7.4, 30 °C, Sox fluorescence
[6] = recombinant JNK2, 1 mM ATP, pH 7.4, 30 °C, Sox fluorescence
[7] = recombinant JNK3, 1 mM ATP, pH 7.4, 30 °C, Sox fluorescence
[8] = recombinant ERK1, 1 mM ATP, pH 7.4, 30 °C, Sox fluorescence
[9] = recombinant ERK2, 1 mM ATP, pH 7.4, 30 °C, Sox fluorescence
[10] = 1 mM ATP, pH 7.4, 30 °C, Sox fluorescence

Chain of JNK1 (P45983 whole entry): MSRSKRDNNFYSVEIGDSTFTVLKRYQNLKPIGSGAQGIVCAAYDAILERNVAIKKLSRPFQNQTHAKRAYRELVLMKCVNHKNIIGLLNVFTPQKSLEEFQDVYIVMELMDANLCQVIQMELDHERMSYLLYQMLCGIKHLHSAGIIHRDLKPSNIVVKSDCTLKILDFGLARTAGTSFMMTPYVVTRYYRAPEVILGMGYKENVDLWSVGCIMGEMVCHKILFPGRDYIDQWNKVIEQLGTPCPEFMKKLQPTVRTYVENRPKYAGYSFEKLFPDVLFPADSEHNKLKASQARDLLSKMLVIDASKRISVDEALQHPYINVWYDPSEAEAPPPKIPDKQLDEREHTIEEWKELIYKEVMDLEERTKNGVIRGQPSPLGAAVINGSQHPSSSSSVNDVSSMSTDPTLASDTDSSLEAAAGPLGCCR
Chain of JNK3 (P53779 whole entry): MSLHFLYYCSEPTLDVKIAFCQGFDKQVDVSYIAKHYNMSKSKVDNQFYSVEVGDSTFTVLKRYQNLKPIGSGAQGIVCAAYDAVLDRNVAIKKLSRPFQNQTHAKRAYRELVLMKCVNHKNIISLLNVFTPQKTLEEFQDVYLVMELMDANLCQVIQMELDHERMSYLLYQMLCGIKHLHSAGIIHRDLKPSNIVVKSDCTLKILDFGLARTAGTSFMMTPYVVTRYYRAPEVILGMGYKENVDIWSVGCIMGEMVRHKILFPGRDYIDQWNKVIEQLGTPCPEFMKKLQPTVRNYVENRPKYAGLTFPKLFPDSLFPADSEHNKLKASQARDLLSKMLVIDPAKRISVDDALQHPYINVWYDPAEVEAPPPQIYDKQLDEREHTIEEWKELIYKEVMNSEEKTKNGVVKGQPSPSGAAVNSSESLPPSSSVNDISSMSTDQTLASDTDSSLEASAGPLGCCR

Substance: IKIKKIEDASNPLLLKRRKK [MK2]
Kd (ERK): 19.5 µM
Kd (JNK): > 100 µM
Kd (p38): 0.05 µM

Substance: PQLKPIESSILAQRRVRKL [RSK1]
Kd (JNK): > 100 µM

Substance: ERPSRDHLYLPLEP [NFAT4]
Kd (ERK): > 100 µM
Kd (JNK): 7.1 µM
Kd (p38): > 100 µM

Continued, values first:

catalytic efficiency (min^–1 μM^–1) (JNK1; recombinant JNK1): 5.4 min^–1 μM^–1
Vmax (μmol min^–1 mg^–1) (JNK1; [5]): 0.38 ± 0.05 μmol min^–1 mg^–1
kcat (min^–1) (JNK1; [5]): 17.9 ± 2.2 min^–1
catalytic efficiency (min^–1 μM^–1) (JNK2; recombinant JNK2): 19.2 min^–1 μM^–1
Vmax (μmol min^–1 mg^–1) (JNK2; [6]): 0.37 ± 0.02 μmol min^–1 mg^–1
kcat (min^–1) (JNK2; [6]): 18.2 ± 1.3 min^–1
catalytic efficiency (min^–1 μM^–1) (JNK3; recombinant JNK3): 9.4 min^–1 μM^–1
Vmax (μmol min^–1 mg^–1) (JNK3; [7]): 0.35 ± 0.07 μmol min^–1 mg^–1
kcat (min^–1) (JNK3; [7]): 26.6 ± 5.6 min^–1
activity observed for any of the off target kinases (percentage of the target kinase) (off target kinases): ≤ 12.5%
Substance: ERPSRDHLYLPLEP-PEG2-SANLLSP-Csox-PA [JNK1/2/3]

crosstalk with p38β (percentage of the target kinase) (p38β [1]): 17%
crosstalk with p38α (percentage of the target kinase) (p38α [2]): 10%
catalytic efficiency (min^–1 μM^–1) (ERK1; recombinant ERK1): 26.2 min^–1 μM^–1
Vmax (μmol min^–1 mg^–1) (ERK1; [8]): 0.42 ± 0.03 μmol min^–1 mg^–1
kcat (min^–1) (ERK1; [8]): 29.9 ± 2.0 min^–1
catalytic efficiency (min^–1 μM^–1) (ERK2; recombinant ERK2): 54.6 min^–1 μM^–1
Vmax (μmol min^–1 mg^–1) (ERK2; [9]): 0.90 ± 0.01 μmol min^–1 mg^–1
kcat (min^–1) (ERK2; [9]): 62.8 ± 0.7 min^–1
Substance: GLKRVRRQALISSEIPKLQP-PEG2-Triazole-PEG2-VP-Csox-LTPGGRR [ERK1/2]

catalytic efficiency (min^–1 μM^–1) (p38α [3]): 298.7 min^–1 μM^–1
Vmax (μmol min^–1 mg^–1) (p38α [3]; [10]): 1.37 ± 0.08 μmol min^–1 mg^–1
kcat (min^–1) (p38α [3]; [10]): 92.6 ± 5.4 min^–1
catalytic efficiency (min^–1 μM^–1) (p38β [4]): 282.9 min^–1 μM^–1
Vmax (μmol min^–1 mg^–1) (p38β [4]; [10]): 0.84 ± 0.13 μmol min^–1 mg^–1
kcat (min^–1) (p38β [4]; [10]): 39.6 ± 6.3 min^–1
Substance: GKKRRKLLLPNSADEIKKIKI-PEG2-Triazole-PEG2-QP-Csox-ASPVV [p38α/β]
